Test results published in US20240150322A1, “CDK9 Inhibitors” (Biolexis Therapeutics, Inc., priority 2022, published 2024).

Molecular target: T1, CDK9/CycT1 (Homo sapiens, UniProt P50750)
T1 construct: purchased SignalChem
Assay: ADP-Glo kinase assay
Type: biochemical
Experimental: ADP-Glo assay kit was purchased from Promega and the CDK9/CycT1 protein and PDKtide substrate were purchased from SignalChem. […] The reaction was started by pre-incubating 4 μL of protein (20 nM), 2 μL of substrate (100 μM), and 2 μL of serial diluted drug in 1× assay buffer (50 mM HEPES, 3 mM MgCl2, 3 mM MnCl2, and 1 mM DTT) for 30 minutes. After pre-incubating, 4 μL of ATP (1 μM) was added to each well and incubated for an additional 90 minutes. The ADP-Glo Reagent (10 μL) and Kinase Detection Reagent (20 μL) were added to each well and incubated as recommended by Promega. The reaction was quantified by measuring luminescence and the IC50 was calculated using GraphPad Prism software.

T1 sequence (P50750 whole entry): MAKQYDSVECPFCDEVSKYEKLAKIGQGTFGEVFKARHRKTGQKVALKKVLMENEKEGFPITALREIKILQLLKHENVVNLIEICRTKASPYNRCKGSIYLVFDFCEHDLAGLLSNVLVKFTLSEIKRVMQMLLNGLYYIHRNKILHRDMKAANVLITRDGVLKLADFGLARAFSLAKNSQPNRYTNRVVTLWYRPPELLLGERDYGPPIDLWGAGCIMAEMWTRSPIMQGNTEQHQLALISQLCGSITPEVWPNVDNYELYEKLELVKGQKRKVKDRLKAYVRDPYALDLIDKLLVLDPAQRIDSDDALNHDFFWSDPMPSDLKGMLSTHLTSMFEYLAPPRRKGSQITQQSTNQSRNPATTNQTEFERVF
T1 sequence (O60563 whole entry partner): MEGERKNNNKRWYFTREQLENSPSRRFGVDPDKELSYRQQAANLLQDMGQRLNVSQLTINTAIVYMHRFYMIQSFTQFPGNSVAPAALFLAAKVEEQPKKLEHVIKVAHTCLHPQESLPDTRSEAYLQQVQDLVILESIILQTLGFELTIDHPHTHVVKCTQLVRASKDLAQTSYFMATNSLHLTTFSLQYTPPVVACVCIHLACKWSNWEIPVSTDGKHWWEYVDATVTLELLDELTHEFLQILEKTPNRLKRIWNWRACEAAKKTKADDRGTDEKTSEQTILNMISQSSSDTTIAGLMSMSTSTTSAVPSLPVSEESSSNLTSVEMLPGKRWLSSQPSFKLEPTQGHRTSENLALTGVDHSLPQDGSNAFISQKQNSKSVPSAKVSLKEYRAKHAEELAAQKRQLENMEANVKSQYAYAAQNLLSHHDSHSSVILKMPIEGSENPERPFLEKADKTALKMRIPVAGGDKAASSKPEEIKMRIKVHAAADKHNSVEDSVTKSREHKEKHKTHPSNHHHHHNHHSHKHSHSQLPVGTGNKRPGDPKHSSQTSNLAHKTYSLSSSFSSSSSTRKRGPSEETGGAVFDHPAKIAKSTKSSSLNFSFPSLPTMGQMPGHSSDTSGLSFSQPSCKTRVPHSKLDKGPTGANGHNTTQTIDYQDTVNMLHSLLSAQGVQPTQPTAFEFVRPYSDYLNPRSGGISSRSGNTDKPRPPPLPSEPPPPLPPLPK

How did the IC50 turn out when `CC(C)c1c2cc(-c3ccnc(N[C@H]4CC[C@H](N)C4)n3)ccc2nn1C` [Compound I-2, (1S,3S)-[3-[4-(3-isopropyl-2-methylindazol-5-yl)pyrimidin-2-yl]aminocyclopentan-1-yl]-1,3-diamine] was run?
Its IC50 is less than 50 nM.
